Measurements from BindingDB's records for doi:10.1021/jm060666p (University of Massachusetts Medical School, 2006).

Target: T1, Dimer of Gag-Pol polyprotein [491-589,Q496K] (Human immunodeficiency virus 1, UniProt P03369, Q496K)
T1 construct: 491-589
Assay: Enzyme Inhibition Assay
Experimental: HIV-1 protease inhibitor activities were determined by the fluorescence resonance energy transfer (FRET) method. The energy transfer donor (EDANS) and acceptor (DABCYL) were labeled at two ends of peptide substrate to perform FRET. Fluorescence measurements were carried out on a fluorescence spectrophotometer. Excitation and emission wavelengths were set at 340 and 490 nm. Inhibitor binding dissociation constant Ki was obtained by nonlinear regression fitting to the plot of initial velocity as a function of inhibitor concentrations based on Morrison equation. The initial velocities were derived from the linear range of reaction curves.

Structure (SMILES)	Ki
COc1cccc(S(=O)(=O)N(C[C@H]2CCCO2)C[C@@H](O)[C@H](Cc2ccccc2)NC(=O)[C@@H]2CN(c3ccccc3)C(=O)O2)c1 [(5S)-N-[(1S,2R)-1-Benzyl-2-hydroxy-3-[[(3-methoxyphenyl)-sulfonyl][(R)-(tetrahydro-2-furanyl)methyl]amino]propyl]-2-oxo-3-phenyloxazolidine-5-carboxamide]	42 nM
COc1cccc(S(=O)(=O)N(C[C@H]2CCCO2)C[C@@H](O)[C@H](Cc2ccccc2)NC(=O)[C@@H]2CN(c3cccc(F)c3)C(=O)O2)c1 [(5S)-N-[(1S,2R)-1-Benzyl-2-hydroxy-3-[[(3-methoxyphenyl)-sulfonyl][(R)-(tetrahydro-2-furanyl)methyl]amino]propyl]-3-(3-fluorophenyl)-2-oxooxazolidine-5-carboxamide]	150 nM
